# Assay results reported in ChEMBL document CHEMBL3639003, “Heteroaryloxycarbocyclyl compounds as PDE10 inhibitors” (2015).
# Biological target: cAMP and cAMP-inhibited cGMP 3',5'-cyclic phosphodiesterase 10A (Homo sapiens, UniProt Q9Y233)
# Assay: IMAP TR-FRET Assay: Enzyme Activity. An IMAP TR-FRET assay was used to analyze the enzyme activity (Molecular Devices Corp., Sunnyvale Calif.). 5 uL, of serial diluted PDE10A (BPS Bioscience, San Diego, Calif.) or tissue homogenate was incubated with equal volumes of diluted fluorescein labeled cAMP or cGMP for 60 min in 384-well polystyrene assay plates (Corning, Corning, N.Y.) at room temperature. After incubation, the reaction was stopped by adding 60 uL, of diluted binding reagents and was incubated for 3 hours to overnight at room temperature. The plates were read on an Envision (Perkin Elmer, Waltham, Mass.) for time resolved fluorescence resonance energy transfer. The data were analyzed with GraphPad Prism (La Jolla, Calif.).Enzyme Inhibition. To check the inhibition profile, 5 uL, of serial diluted compounds were incubated with 5 uL, of diluted PDE10 enzyme (BPS Bioscience, San Diego, Calif.) or tissue homogenate in a 384-well polystyrene assay plate (Corning, Corning, N.Y.).
# cAMP and cAMP-inhibited cGMP 3',5'-cyclic phosphodiesterase 10A, sequence (Q9Y233 whole entry): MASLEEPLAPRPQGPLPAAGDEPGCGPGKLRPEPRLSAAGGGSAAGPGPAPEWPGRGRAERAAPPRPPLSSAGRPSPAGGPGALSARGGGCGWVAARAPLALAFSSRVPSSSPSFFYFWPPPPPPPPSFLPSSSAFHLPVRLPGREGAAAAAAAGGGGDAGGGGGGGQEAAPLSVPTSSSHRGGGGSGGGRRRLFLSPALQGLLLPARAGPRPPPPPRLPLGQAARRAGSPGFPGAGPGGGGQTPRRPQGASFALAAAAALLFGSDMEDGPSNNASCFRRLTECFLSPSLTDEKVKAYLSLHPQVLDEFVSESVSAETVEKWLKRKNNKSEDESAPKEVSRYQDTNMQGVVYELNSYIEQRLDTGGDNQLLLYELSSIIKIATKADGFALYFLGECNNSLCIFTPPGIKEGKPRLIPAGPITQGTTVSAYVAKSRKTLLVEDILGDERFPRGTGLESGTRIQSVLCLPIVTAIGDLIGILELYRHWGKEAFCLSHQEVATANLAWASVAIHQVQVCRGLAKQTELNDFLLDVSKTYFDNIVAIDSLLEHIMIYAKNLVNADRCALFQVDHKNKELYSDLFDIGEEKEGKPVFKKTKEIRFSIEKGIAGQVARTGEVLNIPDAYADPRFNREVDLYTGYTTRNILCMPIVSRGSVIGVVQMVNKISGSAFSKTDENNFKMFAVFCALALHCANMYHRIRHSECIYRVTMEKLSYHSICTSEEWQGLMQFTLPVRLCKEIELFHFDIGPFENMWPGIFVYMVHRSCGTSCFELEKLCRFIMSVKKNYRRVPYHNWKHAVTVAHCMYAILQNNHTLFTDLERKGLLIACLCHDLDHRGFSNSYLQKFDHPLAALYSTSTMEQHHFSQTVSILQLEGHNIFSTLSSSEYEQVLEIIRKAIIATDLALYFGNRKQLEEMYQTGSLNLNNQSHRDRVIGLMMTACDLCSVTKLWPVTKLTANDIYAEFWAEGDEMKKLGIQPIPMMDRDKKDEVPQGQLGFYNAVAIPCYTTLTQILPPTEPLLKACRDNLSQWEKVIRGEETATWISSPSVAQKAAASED
row,SMILES,IC50
1,CC(=O)N1CCN(c2nccnc2O[C@H]2C[C@@H](Nc3nc4ccccc4s3)C2)CC1,9.26 nM
2,Fc1cnc(O[C@H]2C[C@@H](Nc3nc4cc(F)ccc4s3)C2)c(C2CCOCC2)c1,3.49 nM
3,COCC(=O)N1CCC(c2nccnc2O[C@H]2C[C@@H](Nc3ccc4ccccc4n3)C2)CC1,5.06 nM
4,OCC1CCN(c2nccnc2O[C@H]2C[C@@H](Nc3ncc4ccccc4n3)C2)CC1,10.9 nM
5,COC(=O)N1CCC(c2cccnc2O[C@H]2C[C@@H](Nc3nc4ccccc4s3)C2)CC1,3.18 nM
6,COC(=O)N1CC(c2nccnc2O[C@H]2C[C@@H](Nc3nc4ccccc4s3)C2)C1,17.5 nM
7,OCC1CCCN(c2nccnc2O[C@H]2C[C@@H](Nc3nc4ccccc4s3)C2)C1 (some centres undefined),3.62 nM
8,CC(=O)N1CCC(c2nccnc2O[C@H]2C[C@@H](Nc3ccc(C)cn3)C2)CC1,66.1 nM
9,Cc1ncc(-c2nccnc2O[C@H]2C[C@@H](Nc3nc4ccccc4s3)C2)cn1,3.25 nM
10,COC(=O)N1CCC(c2nccnc2O[C@H]2C[C@@H](Nc3nc4ccccc4s3)C2)CC1,4.24 nM
11,c1cnc(O[C@H]2CC[C@H](Nc3nc4ccccc4s3)CC2)c(C2CCOCC2)c1,32.5 nM
12,CC(=O)N1CCC(c2nccnc2O[C@H]2C[C@H](Nc3ccc(C)cn3)C2)CC1,84.6 nM
13,Fc1ccc2nc(N[C@H]3C[C@@H](Oc4nccnc4C4CCOCC4)C3)sc2c1,15.1 nM
14,Cc1ccc(N[C@H]2C[C@H](Oc3ncccc3C3CCOCC3)C2)nc1,17.6 nM
15,Clc1ccc(-c2nccnc2O[C@H]2C[C@@H](Nc3nc4ccccc4s3)C2)cn1,7.66 nM
16,Clc1ccc(C2=CCOCC2)c(O[C@H]2C[C@@H](Nc3nc4ccccc4s3)C2)n1,3.55 nM
17,NC(=O)c1ccc(-c2nccnc2O[C@H]2C[C@@H](Nc3ccc4ccccc4n3)C2)cn1,3.8 nM
18,O[C@@H]1CCN(c2nccnc2O[C@H]2C[C@@H](Nc3nc4ccccc4s3)C2)C1,14.2 nM
19,c1ccc2sc(N[C@H]3C[C@@H](Oc4nccnc4N4CCOCC4)C3)nc2c1,22.4 nM
20,CC1CCCN(c2nccnc2O[C@H]2C[C@@H](Nc3nc4ccccc4s3)C2)C1 (some centres undefined),29.4 nM
21,N#Cc1ccc(-c2nccnc2O[C@H]2C[C@@H](Nc3ccc4ccccc4n3)C2)cn1,8.35 nM
22,O=C(c1ccccn1)C1CC(Oc2ncccc2C2CCOCC2)C1 (centres undefined),250 nM

row,SMILES,IC50
1,N#CC1CCN(c2nccnc2O[C@H]2C[C@@H](Nc3nc4ccccc4s3)C2)CC1,2.31 nM
2,c1cnc(O[C@H]2CC[C@H](Nc3nc4ccccc4o3)CC2)c(C2CCOCC2)c1,12 nM
3,Fc1ccc2sc(N[C@H]3C[C@@H](Oc4nccnc4C4CCOCC4)C3)nc2c1,18.3 nM
4,c1cnc(O[C@H]2CC[C@H](Nc3ccc4ccccc4n3)CC2)c(C2CCOCC2)c1,91 nM
5,COCC(=O)N1CCC(c2cccnc2O[C@H]2C[C@@H](Nc3ccc4ccccc4n3)C2)CC1,0.948 nM
6,Cc1ccc(-c2nccnc2O[C@H]2C[C@@H](Nc3nc4cc(F)ccc4s3)C2)cn1,19.7 nM
7,O=S1(=O)CCN(c2nccnc2O[C@H]2C[C@@H](Nc3nc4ccccc4s3)C2)CC1,18.5 nM
8,Fc1cccc2sc(N[C@H]3C[C@@H](Oc4nccnc4C4CCOCC4)C3)nc12,13 nM
9,N#CC1CCN(c2cccnc2O[C@H]2C[C@@H](Nc3nc4ccccc4s3)C2)CC1,1.25 nM
10,c1cnc(O[C@H]2C[C@@H](Nc3nc4ccccc4[nH]3)C2)c(C2CCOCC2)c1,1.53 nM
11,Cc1ccnc(N[C@H]2CC[C@H](Oc3ncccc3C3CCOCC3)CC2)c1,150 nM
12,Cc1cc(-c2nccnc2O[C@H]2C[C@@H](Nc3nc4ccccc4s3)C2)ccn1,20.5 nM
13,N#Cc1ccc(-c2nccnc2O[C@H]2C[C@@H](Nc3nc4ccccc4s3)C2)cn1,7.4 nM
14,NC(=O)c1ccc(-c2nccnc2O[C@H]2C[C@@H](Nc3nc4ccccc4s3)C2)cn1,2.96 nM
15,Cc1cnccc1-c1nccnc1O[C@H]1C[C@@H](Nc2nc3ccccc3s2)C1,4.23 nM
16,Cc1cccc(N[C@H]2CC[C@H](Oc3ncccc3C3CCOCC3)CC2)n1,1750 nM
17,Cc1cccnc1N[C@H]1CC[C@H](Oc2ncccc2C2CCOCC2)CC1,46 nM
18,FC1(F)CCN(c2nccnc2O[C@H]2C[C@@H](Nc3nc4ccccc4s3)C2)C1,11.1 nM
19,N#CC1CCN(c2nccnc2O[C@H]2C[C@@H](Nc3ccc4ccccc4n3)C2)CC1,2.26 nM
20,c1cnc(O[C@H]2C[C@@H](Nc3ccc4ccccc4n3)C2)c(C2CCOCC2)c1,1.5 nM
21,CN1CCN(c2nccnc2O[C@H]2C[C@@H](Nc3nc4ccccc4s3)C2)CC1,122 nM
22,c1cnc(O[C@H]2C[C@H](Nc3nc4ccccc4s3)C2)c(C2CCOCC2)c1,3.19 nM

row,SMILES,IC50
1,c1cnc(O[C@H]2C[C@@H](Nc3nc4ccccc4s3)C2)c(C2CCOCC2)c1,0.751 nM
2,NC(=O)c1ccc(-c2cccnc2O[C@H]2C[C@@H](Nc3nc4ccccc4s3)C2)cn1,0.129 nM
3,CC1CCN(c2nccnc2O[C@H]2C[C@@H](Nc3nc4ccccc4s3)C2)C1 (some centres undefined),6.92 nM
4,COc1ncccc1-c1nccnc1O[C@H]1C[C@@H](Nc2nc3ccccc3s2)C1,4.11 nM
5,c1cnc(O[C@H]2C[C@H](Nc3nc4ccccc4[nH]3)C2)c(C2CCOCC2)c1,2.63 nM
6,Fc1cnc(O[C@H]2C[C@@H](Nc3nc4c(F)cccc4s3)C2)c(C2CCOCC2)c1,5.43 nM
7,CC(=O)N1CCC(c2nccnc2O[C@H]2C[C@@H](Nc3nc4ccccc4s3)C2)CC1,2.77 nM
8,CC(=O)N1CCN(c2nccnc2O[C@H]2C[C@@H](Nc3ccc4ccccc4n3)C2)CC1,23.7 nM
9,Cc1cc(-c2cccnc2O[C@H]2CC[C@H](Nc3nc4ccccc4s3)CC2)ccn1,19.6 nM
10,OCC1CCN(c2nccnc2O[C@H]2C[C@@H](Nc3nc4ccccc4s3)C2)CC1,3.16 nM
11,CN1CCN(c2nccnc2O[C@H]2C[C@@H](Nc3ncc4ccccc4n3)C2)CC1,316 nM
12,COCC(=O)N1CCC(c2nccnc2O[C@H]2C[C@@H](Nc3nc4ccccc4s3)C2)CC1,6.57 nM
13,N#CC1CCN(c2nccnc2O[C@H]2C[C@@H](Nc3nc4ccccc4s3)C2)C1 (some centres undefined),1.07 nM
14,CC(=O)N1CCC(c2nccnc2O[C@H]2C[C@H](Nc3ccc4ccccc4n3)C2)CC1,15.8 nM
15,CC(=O)N1CCC(c2cccnc2O[C@H]2C[C@@H](Nc3ccc4ccccc4n3)C2)CC1,1.32 nM
16,c1ccc2nc(N[C@H]3C[C@@H](Oc4nccnc4C4CCOCC4)C3)ccc2c1,7.5 nM
17,O[C@H]1CCN(c2nccnc2O[C@H]2C[C@@H](Nc3nc4ccccc4s3)C2)C1,17.5 nM
18,N#Cc1ccc(-c2nccnc2O[C@H]2C[C@@H](Nc3ncc4ccccc4n3)C2)cn1,7.71 nM
19,N#Cc1ccc(-c2cccnc2O[C@H]2C[C@H](Nc3nc4ccccc4s3)C2)cn1,2.97 nM
20,O=C(c1nc2ccccc2[nH]1)[C@H]1C[C@H](Oc2ncccc2C2CCOCC2)C1,7.15 nM
